Results as given in the NIST ThermoML archive (doi:10.1016/j.jct.2016.08.010).

Experiments:
[1] = xn = mol fraction of the nth substance listed; conditions: 100 kPa, Liquid; for speed of sound: Frequency=3 MHz, Sing-around technique in a fixed-path interferometer; for mass density: Vibrating tube method
[2] = excess molar enthalpy (molar enthalpy of mixing); xn = mol fraction of the nth substance listed; conditions: 298.15 K, 100 kPa, Liquid, Power-compensation calorimetry

CCCCn1cc[n+](C)c1C.F[B-](F)(F)F [1-butyl-2,3-dimethylimidazolium tetrafluoroborate] + CCCCn1cc[n+](C)c1.F[B-](F)(F)F
[1]
Conditions	mass density, 303.15 K [kg/m3]	mass density, 308.15 K [kg/m3]	speed of sound, 303.15 K [m/s]	speed of sound, 308.15 K [m/s]
x1 = 0.0917	1192.4	1189.4	–	1550
x1 = 0.1281	1191.4	1188.6	–	1553.1
x1 = 0.1633	1190.4	1187.9	–	1556
x1 = 0.2059	1189.5	1187.1	–	1559.5
x1 = 0.2455	1188.6	1186.4	–	1562.7
x1 = 0.2967	1187.8	1185.7	–	1566.8
x1 = 0.3424	1187.1	1185.2	–	1570.4
x1 = 0.3974	1186.6	1184.8	–	1574.6
x1 = 0.4496	1186.3	1184.6	–	1578.6
x1 = 0.4997	1186.2	1184.5	1595.2	1582.4
x1 = 0.5418	1186.2	1184.5	1598.4	1585.5
x1 = 0.5941	1186.4	1184.7	1602.2	1589.4
x1 = 0.6398	1186.7	1184.9	1605.6	1592.9
x1 = 0.6873	1187	1185.3	1609.1	1596.3
x1 = 0.7388	1187.4	1185.7	1612.9	1600.1
x1 = 0.7963	1187.9	1186.1	1617.1	1604.4
x1 = 0.8482	1188.4	1186.5	1621	1608.4
x1 = 0.8903	1188.7	1187	1624.2	1611.4
x1 = 1	1189.7	1187.9	1632.5	1619.8

[2]
Conditions	excess molar enthalpy [kcal/mol]
x1 = 0.0861	0.00327
x1 = 0.1386	0.00523
x1 = 0.1972	0.00734
x1 = 0.2455	0.00889
x1 = 0.2945	0.0104
x1 = 0.3428	0.0114
x1 = 0.3917	0.0121
x1 = 0.4457	0.0125
x1 = 0.5019	0.0125
x1 = 0.5637	0.0117
x1 = 0.6097	0.0109
x1 = 0.6637	0.00963
x1 = 0.7076	0.00858
x1 = 0.7611	0.00691
x1 = 0.8042	0.00564
x1 = 0.8462	0.00437
x1 = 0.8827	0.00325
x1 = 0.9144	0.0023
